Assay results taken from patent US20210052703A1 (SHANGHAI BENEMAE PHARMACEUTICAL CORPORATION, priority 2018, published 2021).
Where two headings read alike, the source gives them in different places.

Assays:
[1] = pharmacokinetic studies in monkey models; settings: in vivo, sc
[2] = tested on: rabbits with normal glycemic index; experiment: glucose-induced high blood sugar in rabbits; format: in vivo
type 2 diabetic patients [3] = experiment: trial 5A: Beinaglutide with glipizide in type 2 diabetic patients; format: in vivo, human
[4] = tested on: male diet induced obesity (DIO) mice; settings: for % of Gastric Remains / Gross Weight of Stomach / Propelling Distance of Carbon Powder / Propelling Rate of Carbon Powder: X ± SE
Protocol: Five minutes after subcutaneous injection, gavage was conducted using 5% carbon powder suspension (in 2% carboxymethylcellulose solution) at 1.5 ml/100 g body weight. […] The stomach was wiped dry with filter paper and weighed for the gross weight of the stomach. Then the content of the stomach was removed and the stomach was weighed for the net weight. The respective distance from the pyloric sphincter to the front of carbon powder suspension and to the distal end of the large intestine was measured. • propelling distance of carbon powder in the intestine (cm)=distance from pylorus to the proximal end of carbon powder; • mass of carbon powder gavaged=concentration of carbon powder suspension×volume; • propelling rate of carbon powder (%)=propelling distance of carbon powder in the intestine (cm)/entire length of intestine (cm)×100%; • rate of gastric remains (%)=(gross weight of stomach−net weight of stomach)/mass of carbon powder gavaged×100%.
The animals were fasted 29-33 hours before injection, and the animals were not given any water 5-7 hours before injection. Injections were made by subcutaneous administration to the neck, at 0.1 ml/100 g body weight.

[5] = tested on: animals having a normal level of blood sugar; experiment: blood sugar and insulin in animals having a normal level of blood sugar; format: in vivo
[6] = tested on: patients with type 2 diabetes; experiment: trial 5C: Beinaglutide with metformin, multicenter, type 2 diabetes; format: in vivo, human
Excerpt: Note: Covariance analysis was used for comparison between groups. The dependent variable was the change in body weight relative to baseline, and the covariate was baseline. Body weight change from baseline=post-treatment−baseline. Data from 5C test data.

type 2 diabetic patients [7] = experiment: trial 5B: Beinaglutide with metformin in type 2 diabetic patients
Sprague-Dawley (SD) rats = experiment: stomach emptying and carbon powder propelling in SD rats (Example 1); format: in vivo, rat; settings: X ± SE
Protocol: Each group had 10 rats, half male and half female. The tails of the rats were labeled as follows:
The dose selection is calculated based on human dose. The clinical human dose is estimated to be about 0.4 mg/injection, one injection per day, which corresponds to 36 μg/kg rat dose, calculated based on the body surface area. Accordingly, the rats were tested at a medium dose of 30 μg/kg, a low dose at 50% of the medium dose, and a high dose at 200% of the medium dose. The clinical human dose of liraglutide for treating obesity is 3.0 mg/injection, one injection per day, which corresponds to 270 μg/kg rat dose, calculated based on the body surface area.
The positive control was liraglutide injectable formulation, which was stored in dark, sealed condition. The rats were raised and kept at the Laboratory Animal Center, Shanghai University of Traditional Chinese Medicine.
The injectable formulations were made and diluted at the time of experiment, as follows:
The rats were fasted for 16 hours with only water provided. Before being divided into groups, the rats were weighed and weights were recorded (cage numbering and tail labeling). Based on the body weight, the rats were randomly divided into 5 groups, 10 in each group, half male and half female.
The rats were administered with appropriate amounts of Beinaglutide or liraglutide based on their body weights by subcutaneous injection. Female rats were injected after male rats, in the order of their group numbers: 101, 201, 301, 401, 501, 102, 202, 302, 402, 502, etc. The formulations were injected to the rats by lifting the skin in the back, placing the needle of the syringe subcutaneously and injecting. When retrieving the needle, the site of injection was pressed with hand to avoid leakage of the formulation. The amount of injection is about 0.1 ml/100 g body weight.

[8] = trials 5A and 5B: time course of action and adverse events; format: in vivo, human
mice = experiment: blood sugar increase induced by alloxan and streptozotocin in mice; format: in vivo
[9] = tested on: mice with normal glycemic index; experiment: glucose-induced high blood sugar in mice; format: in vivo
rats = experiment: blood sugar increase induced by alloxan and streptozotocin in rats; format: in vivo
[10] = Test group (Beinaglutide+metformin), 84 days (12 weeks) from baseline
[11] = Test group, 248 subjects, 84 days from baseline
[12] = Test group, 84 days from baseline
[13] = female rats, Beinaglutide 15 μg/kg subcutaneous
[14] = female rats, Beinaglutide 30 μg/kg subcutaneous
[15] = female rats, Beinaglutide 60 μg/kg subcutaneous
[16] = male rats, Beinaglutide 15 μg/kg subcutaneous
[17] = male rats, Beinaglutide 30 μg/kg subcutaneous
[18] = male rats, Beinaglutide 60 μg/kg subcutaneous

## CC[C@H](C)[C@H](NC(=O)[C@H](Cc1ccccc1)NC(=O)[C@H](CCC(=O)O)NC(=O)[C@H](CCCCN)NC(=O)[C@H](C)NC(=O)[C@H](C)NC(=O)[C@H](CCC(N)=O)NC(=O)CNC(=O)[C@H](CCC(=O)O)NC(=O)[C@H](CC(C)C)NC(=O)[C@H](Cc1ccc(O)cc1)NC(=O)[C@H](CO)NC(=O)[C@H](CO)NC(=O)[C@@H](NC(=O)[C@H](CC(=O)O)NC(=O)[C@H](CO)NC(=O)[C@@H](NC(=O)[C@H](Cc1ccccc1)NC(=O)[C@@H](NC(=O)CNC(=O)[C@H](CCC(=O)O)NC(=O)[C@H](C)NC(=O)[C@@H](N)Cc1cnc[nH]1)[C@@H](C)O)[C@@H](C)O)C(C)C)C(=O)N[C@@H](C)C(=O)N[C@@H](Cc1c[nH]c2ccccc12)C(=O)N[C@@H](CC(C)C)C(=O)N[C@H](C(=O)N[C@@H](CCCCN)C(=O)NCC(=O)N[C@@H](CCCNC(=N)N)C(=O)O)C(C)C [Beinaglutide]
[1]
  half-life: 15 to 30 min
[2]
  effect on glucose-induced high blood sugar: lower glucose-induced high blood sugar
Type 2 diabetic patients [3]; 0.1 mg three times a day with glipizide, treatment for 2 weeks, FAS n = 24, before treatment 25.51 ± 2.59
  BMI: 25.53 ± 2.63 kg/m^2
Type 2 diabetic patients [3]; 0.1 mg three times a day with glipizide, treatment for 4 weeks, FAS n = 24, before treatment 25.51 ± 2.59
  BMI: 25.40 ± 2.64 kg/m^2
Type 2 diabetic patients [3]; 0.1 mg three times a day with glipizide, treatment for 8 weeks, FAS n = 24, before treatment 25.51 ± 2.59
  BMI: 25.25 ± 2.57 kg/m^2
Type 2 diabetic patients [3]; 0.1 mg three times a day with glipizide, treatment for 12 weeks, FAS n = 24, before treatment 25.51 ± 2.59
  BMI: 25.20 ± 2.60 kg/m^2
Type 2 diabetic patients [3]; 0.15 mg three times a day with glipizide, treatment for 2 weeks, FAS n = 24, before treatment 25.66 ± 2.64
  BMI: 25.63 ± 2.57 kg/m^2
Type 2 diabetic patients [3]; 0.15 mg three times a day with glipizide, treatment for 4 weeks, FAS n = 24, before treatment 25.66 ± 2.64
  BMI: 25.45 ± 2.63 kg/m^2
Type 2 diabetic patients [3]; 0.15 mg three times a day with glipizide, treatment for 8 weeks, FAS n = 24, before treatment 25.66 ± 2.64
  BMI: 25.19 ± 2.48 kg/m^2
Type 2 diabetic patients [3]; 0.15 mg three times a day with glipizide, treatment for 12 weeks, FAS n = 24, before treatment 25.66 ± 2.64
  BMI: 25.11 ± 2.60 kg/m^2
Type 2 diabetic patients [3]; 0.2 mg three times a day with glipizide, treatment for 2 weeks, FAS n = 23, before treatment 26.71 ± 4.17
  BMI: 26.44 ± 4.14 kg/m^2
Type 2 diabetic patients [3]; 0.2 mg three times a day with glipizide, treatment for 4 weeks, FAS n = 23, before treatment 26.71 ± 4.17
  BMI: 26.52 ± 3.95 kg/m^2
Type 2 diabetic patients [3]; 0.2 mg three times a day with glipizide, treatment for 8 weeks, FAS n = 23, before treatment 26.71 ± 4.17
  BMI: 26.09 ± 4.04 kg/m^2
Type 2 diabetic patients [3]; 0.2 mg three times a day with glipizide, treatment for 12 weeks, FAS n = 23, before treatment 26.71 ± 4.17
  BMI: 25.92 ± 3.95 kg/m^2
[4]; from DIO mice 15 μg/kg
  human dose corresponding to effective dose: 0.12 mg/day
[4]; male DIO mice
  effective dose (inhibition of stomach emptying), as low as: 0.015 mg/kg
[4]; male DIO mice, 15 μg/kg
  % of Gastric Remains: 58.92 ± 3.39%
  Gross Weight of Stomach: 0.49 ± 0.02 g
  Propelling Distance of Carbon Powder: 20.50 ± 1.89 cm
  Propelling Rate of Carbon Powder: 47.34 ± 4.63%
[4]; male DIO mice, 20 μg/kg
  % of Gastric Remains: 63.46 ± 9.45%
  Gross Weight of Stomach: 0.50 ± 0.04 g
  Propelling Distance of Carbon Powder: 14.21 ± 2.59 cm
  Propelling Rate of Carbon Powder: 34.86 ± 6.72%
[4]; male DIO mice, 25 μg/kg
  % of Gastric Remains: 62.69 ± 7.26%
  Gross Weight of Stomach: 0.53 ± 0.03 g
  Propelling Distance of Carbon Powder: 15.00 ± 2.45 cm
  Propelling Rate of Carbon Powder: 35.25 ± 5.72%
[4]; male DIO mice, 50 μg/kg
  % of Gastric Remains: 70.86 ± 7.41%
  Gross Weight of Stomach: 0.55 ± 0.02 g
  Propelling Distance of Carbon Powder: 10.00 ± 1.04 cm
  Propelling Rate of Carbon Powder: 23.80 ± 2.41%
[4]; male DIO mice, 75 μg/kg
  % of Gastric Remains: 78.34 ± 5.75%
  Gross Weight of Stomach: 0.57 ± 0.03 g
  Propelling Distance of Carbon Powder: 9.29 ± 1.23 cm
  Propelling Rate of Carbon Powder: 21.51 ± 2.63%
[4]; male DIO mice, 100 μg/kg
  % of Gastric Remains: 74.37 ± 6.06%
  Gross Weight of Stomach: 0.56 ± 0.02 g
  Propelling Distance of Carbon Powder: 9.00 ± 1.12 cm
  Propelling Rate of Carbon Powder: 20.87 ± 2.19%
[5]
  effect on blood sugar and blood insulin level: neither decreased blood sugar nor increased blood insulin level
[6]; 0.2 mg three times a day with metformin, Baseline BMI 25.81
  Week 12 BMI: 25.09 kg/m^2
[6]; 0.2 mg three times a day with metformin, baseline to week 12, 0 mg group −0.40
  BMI Change: −0.72
[6]; 84 days after medication, covariance analysis, P 0.0075
  difference Test-Control group in body weight change, Corrected mean: −0.82
[6]; Test group (0.2 mg three times a day + metformin), overweight and obese patients, ITT, 84 days after medication
  change in body weight from baseline, median: -2.00 kg
[6]; Test group (0.2 mg three times a day + metformin), overweight and obese patients, ITT, 84 days after medication, 248 subjects
  change in body weight from baseline, Mean ± standard deviation: -2.22 ± 2.55 kg
[6]; [10]
  proportion of subjects with Weight loss ≥ 3%: (40.32) %
  proportion of subjects with weight loss ≥5%: (20.97) %
[6]; [11]
  number of subjects with Weight loss < 3%: 148
  number of subjects with Weight loss < 5%: 196
  number of subjects with Weight loss ≥ 3%: 100
  number of subjects with Weight loss ≥ 5%: 52
[6]; [12]
  proportion of subjects with Weight loss < 3%: (59.68) %
  proportion of subjects with Weight loss < 5%: (79.03) %
Type 2 diabetic patients [7]; 0.1 mg three times a day with metformin, treatment for 2 weeks, FAS n = 73, Day 1 26.24 ± 3.31
  BMI: 26.12 ± 3.29 kg/m^2
Type 2 diabetic patients [7]; 0.1 mg three times a day with metformin, treatment for 4 weeks, FAS n = 73, Day 1 26.24 ± 3.31
  BMI: 26.02 ± 3.33 kg/m^2
Type 2 diabetic patients [7]; 0.1 mg three times a day with metformin, treatment for 8 weeks, FAS n = 73, Day 1 26.24 ± 3.31
  BMI: 25.84 ± 3.25 kg/m^2
Type 2 diabetic patients [7]; 0.1 mg three times a day with metformin, treatment for 12 weeks, FAS n = 73, Day 1 26.24 ± 3.31
  BMI: 25.76 ± 3.21 kg/m^2
Type 2 diabetic patients [7]; 0.2 mg three times a day with metformin, treatment for 2 weeks, FAS n = 70, Day 1 25.14 ± 3.10
  BMI: 25.03 ± 3.21 kg/m^2
Type 2 diabetic patients [7]; 0.2 mg three times a day with metformin, treatment for 4 weeks, FAS n = 70, Day 1 25.14 ± 3.10
  BMI: 24.85 ± 3.25 kg/m^2
Type 2 diabetic patients [7]; 0.2 mg three times a day with metformin, treatment for 8 weeks, FAS n = 70, Day 1 25.14 ± 3.10
  BMI: 24.54 ± 3.33 kg/m^2
Type 2 diabetic patients [7]; 0.2 mg three times a day with metformin, treatment for 12 weeks, FAS n = 70, Day 1 25.14 ± 3.10
  BMI: 24.43 ± 3.42 kg/m^2
Sprague-Dawley (SD) rats; [13]
  % of Gastric Remains: 96.81 ± 11.61 %
  Gross Weight of Stomach: 3.10 ± 0.22 g
  Propelling Distance of Carbon Powder: 41.96 ± 5.30 cm
  Propelling Rate of Carbon Powder: 46.97 ± 5.54 %
Sprague-Dawley (SD) rats; [14]
  % of Gastric Remains: 132.66 ± 16.34 %
  Gross Weight of Stomach: 3.78 ± 0.35 g
  Propelling Distance of Carbon Powder: 30.58 ± 3.66 cm
  Propelling Rate of Carbon Powder: 33.88 ± 3.98 %
Sprague-Dawley (SD) rats; [15]
  % of Gastric Remains: 141.53 ± 7.18 %
  Gross Weight of Stomach: 3.90 ± 0.15 g
  Propelling Distance of Carbon Powder: 5.40 ± 1.84 cm
  Propelling Rate of Carbon Powder: 5.94 ± 1.99 %
Sprague-Dawley (SD) rats; [16]
  % of Gastric Remains: 44.14 ± 17.18%
  Gross Weight of Stomach: 2.86 ± 0.52 g
  Propelling Distance of Carbon Powder: 64.22 ± 3.84 cm
  Propelling Rate of Carbon Powder: 61.80 ± 4.14%
Sprague-Dawley (SD) rats; [17]
  % of Gastric Remains: 54.92 ± 14.32%
  Gross Weight of Stomach: 3.08 ± 0.48 g
  Propelling Distance of Carbon Powder: 34.40 ± 5.91 cm
  Propelling Rate of Carbon Powder: 35.46 ± 6.15 %
Sprague-Dawley (SD) rats; [18]
  % of Gastric Remains: 128.70 ± 14.23 %
  Gross Weight of Stomach: 5.36 ± 0.52 g
  Propelling Distance of Carbon Powder: 11.90 ± 6.38 cm
  Propelling Rate of Carbon Powder: 12.28 ± 6.69 %
[8]; Beinaglutide clinical trials
  adverse events: mild to moderate nausea and vomiting
[8]; after administration (injection), type 2 diabetic patients
  peak time: 20 min
[8]; human, in vivo, other: injection, type 2 diabetic patients, read-out: half-life (duration of action)
  half-life: ~15 min
mice
  effect on increase of blood sugar induced by alloxan and streptozotocin: reduce the increase of blood sugar induced by alloxan and streptozotocin
[9]
  effect on glucose-induced high blood sugar: lower glucose-induced high blood sugar
rats
  effect on increase of blood sugar induced by alloxan and streptozotocin: reduce the increase of blood sugar induced by alloxan and streptozotocin
